Measured values taken from US20200214324A1, “Masking Bitter Flavors” (Board of Supervisors of Louisiana State University and …, priority 2009, published 2020).
Entries after “also recorded” stand apart in the source; their conditions may differ.

Tests used:
Format in all cases: in vivo
[1] = tasting of Robusta coffee with chicory with mogroside; conditions: 2 g/250 g water, plain + 200 ppm mogroside
Text: (§1) Additional examples of the use of Mogroside V to alter the flavors of various consumables, and the experimental results obtained, are summarized in Table I: […]

[2] = vegetable oil with mogroside sprayed onto vegetables, tasting; conditions: vegetable oil with 800 ppm mogroside sprayed on
Text: Mogroside may also be applied to vegetables, for example as a spray or as a dipping solution. The bitter and astringent flavor notes of many vegetables are thereby reduced substantially, resulting in a smoother-tasting vegetable. Mogroside can also reduce beany notes and off-flavors in vegetables. We dispersed an aqueous or ethanol solution of mogroside into vegetable oil at a concentration of 800 ppm. The vegetable oil was then sprayed onto vegetables, either before or after cooking. […] The mogroside may be applied to vegetables from aerosols or misting solutions. It may also be used in microwaving, steaming, or boiling of vegetables, as well as other methods of cooking. […] Treating vegetables with mogroside can help to improve their acceptability.

[3] = tasting of rum with mogroside; conditions: plain + 200 ppm mogroside (plain: sharp and bitter)
Text: as §1

[4] = tasting of lima beans with mogroside in oil; conditions: plain + 100 ppm mogroside in oil (plain: beany)
Text: as §1

[5] = tasting of coconut water with mogroside; conditions: plain + 200 ppm mogroside (plain: bitter)
Text: as §1

[6] = tasting of acai products with mogroside
Text: Acai berries have a bitter off-flavor, which has limited the use of acai as a natural anti-oxidant. Prior methods for minimizing the bitterness of acai have included diluting the juice, adding sugar, or mixing acai with other, sweeter berries. […] The flat, tannic notes of acai were masked, and the puree flavor changed to a semi-sweet berry flavor with large, juicy top notes. The preferred concentration range was ˜200 to ˜500 ppm mogroside. […] Possible uses include any products that contain acai berry ingredients, including for example raw berries, purees, powders, flavorings, juices, ice cream (with or without glycerin), fruit fillings, smoothies, yogurts, teas, coffee, beer, salad dressing, marinades, candies, wines, liquors, other alcoholic beverages, and the like.
as §1

[7] = tasting of Hominex amino acid beverage with mogroside; conditions: for off-flavors, chalkiness, pastiness and bitterness compared to the unmodified beverage / mogroside-associated off flavor: Hominex suspension
Protocol: For example, we added mogroside to a commercial amino acid beverage (Hominex™) at a rate of 200-1000 ppm, preferably 300-800 ppm. The Hominex™ suspension, which contains free amino acids, vitamins, minerals, and other nutrients, was prepared in accordance with the manufacturer's directions. Mogroside was then added to the dissolved medical food drink. The suspension was allowed to equilibrate for about one minute before tasting. Compared to the unmodified beverage, there was a marked reduction in the off-flavors, the chalkiness, the pastiness, and the bitterness. […] Unless additional flavors are also added, mogroside's own off-flavor can limit its use at higher concentrations. Conversely, at least for the samples we have tested to date, there may be no compelling reason to use mogroside at such higher levels anyway. Using mogroside in free amino acid-based foods can reduce or eliminate the bitter and unpleasant flavors, making them much more palatable, and enhancing patient compliance. Similar results are expected for improving the palatability of other medical foods.
as §1

[8] = tasting of aqueous potassium chloride solutions with or without mogroside
Text: When tasted by volunteers, the solution without mogroside was bitter, unpleasant, and generally considered undrinkable.
as §1

[9] = tasting of vodka with mogroside; conditions: plain + 200 ppm mogroside (plain: sharp bite)
Text: as §1

[10] = difference and preference testing of a cocoa powder drink with 400 ppm mogroside
Text: as §1

[11] = tasting of Ruby Red grapefruit with mogroside
Text: as §1

[12] = tasting of glycerine-water mixtures with mogroside
Text: Glycerine causes an astringent or biting taste in the back of the mouth when added to foods at levels over a few percent by weight. […] Glycerine may then be used as a humectant in intermediate-moisture human and pet foods. Adding a preferred concentration of about 200 ppm mogroside reduces or even eliminates the glycerine “bite.” Foods such as beans, pasta, rice, and bulgur can be pre-cooked in aqueous solutions of glycerine (˜2 to ˜30% by weight), containing ˜25 to ˜500 ppm mogroside. The products are then optionally dried to a water activity (aw) less than ˜0.7. The resulting materials can be rehydrated quickly with no bitter flavor.
as §1

[13] = tasting of Hominex amino acid beverage with mogroside; conditions: 9.3 g Hominex/100 ml water + 100 ppm mogroside (plain: bitter, chalky, floury)
[14] = blind tasting of poached beef liver puree
Protocol: In another experiment, mogroside was added to a beef liver puree, and the puree was poached to an internal temperature of 74° C. A control puree with no mogroside was identically cooked. Six individuals tasted the samples blind and could easily differentiate them.

[15] = tasting of cocoa powder with mogroside; conditions: plain + 200 ppm mogroside (plain: bitter)
Text: as §1

[16] = cocoa powder drink + 400 ppm mogroside vs control, number of tasters

mogroside
flavor [1]: sweet coffee flavor
observed flavor change ([2]; artichoke hearts): reduction in bitterness and grassy flavor
observed flavor change ([2]; broccoli): reduction in sulfur and bitter notes
observed flavor change ([2]; carrots): more intense sweetness
observed flavor change ([2]; corn): sweeter corn flavor
observed flavor change ([2]; green beans): sweeter flavor and fewer beany notes
observed flavor change ([2]; lima beans): reduction in bitterness
observed flavor change ([2]; peas): shorter flavor profile
flavor [3]: sweet
flavor [4]: semi-sweet; no; also recorded: beaniness
flavor [5]: sweet
flavor ([6]; Acai puree 12% Brix, plain + 500 ppm mogroside (plain: tannic)): berry-semi-sweet/fruity
flavor ([6]; Acai, 100 ppm mogroside (control: bitter, tannic)): bland, slight tannic
flavor ([6]; Acai, 200 ppm mogroside): fruity, berry semi-sweet
flavor ([6]; Acai, 300 ppm mogroside): tannic, little flavor at all
flavor ([6]; Acai, 400 ppm mogroside): jammy, slight tannic
flavor ([6]; Acai, 500 ppm mogroside): jammy, no tannin
flavor ([6]; Acai, 600 ppm mogroside): jammy, sweet after taste;; also recorded: high intensity flavor
flavor ([6]; Acai, 700 ppm mogroside): sweet
flavor ([6]; Acai, 800 ppm mogroside): too sweet
flavor ([6]; acai products, 800 ppm mogroside): strong, high-intensity sweet flavor
effect on bitterness and off-flavor of acai ([6]; mogroside added to acai berry puree): masked the bitterness and off-flavor notes
flavor ([7]; 9.3 g Hominex/100 ml water + 200 ppm mogroside): much less so, but still; also recorded: bitter & slightly floury
flavor ([7]; 9.3 g Hominex/100 ml water + 300 ppm mogroside): drinkable
flavor ([7]; 9.3 g Hominex/100 ml water + 400 ppm mogroside): tasteless
flavor ([7]; 9.3 g Hominex/100 ml water + 500 ppm mogroside): tasteless
flavor ([7]; 9.3 g Hominex/100 ml water + 600 ppm mogroside): slight strange taste
flavor ([7]; 9.3 g Hominex/100 ml water + 700 ppm mogroside): hint of off-note
flavor ([7]; 9.3 g Hominex/100 ml water + 800 ppm mogroside): off-flavored
flavor ([7]; 10 g Hominex/230 g water + 200 ppm mogroside (without: bad aftertaste)): drinkable
off-flavors, chalkiness, pastiness and bitterness compared to the unmodified beverage ([7]; 200 ppm mogroside): reduced
off-flavors, chalkiness, pastiness and bitterness compared to the unmodified beverage ([7]; 300 ppm mogroside): essentially eliminated
mogroside-associated off flavor ([7]; 800 ppm mogroside): pronounced
mogroside-associated off flavor ([7]; around 600 ppm mogroside): began to develop
perceived taste ([8]; 2% aqueous potassium chloride with 250 ppm mogroside, tasted by volunteers, without mogroside bitter, undrinkable): slightly salty, otherwise bland, and far more drinkable
flavor ([8]; KCl 2% + 250 ppm mogroside (2% alone: bitter)): salty
flavor ([8]; KCl 2.5% + 250 ppm mogroside): salty
flavor ([8]; KCl 3.0% + 250 ppm mogroside): slight bitterness
flavor [9]: tasteless
Difference testing: No [10, 16]: 0
Difference testing: Yes [10, 16]: 6
Preference testing: Control ([10]; number preferring control without mogroside): 1
Preference testing: Test ([10]; number preferring test drink with 400 ppm mogroside): 6
flavor ([11]; plain + 100 ppm mogroside (plain: mild sour, mild sweet, very mild aftermath)): no difference from plain
flavor ([11]; plain + 200 ppm mogroside): mild sour, sweet, high
flavor ([11]; plain + 300 ppm mogroside): sweet, hint of sour,; also recorded: aftertaste of bitterness
flavor ([11]; plain + 400 ppm mogroside): very sweet, no sour,; also recorded: hint of bitterness
flavor ([11]; plain + 600 ppm mogroside): too sweet
flavor ([12]; 50% glycerine solution + mogroside (without: biting)): sweet
effect on astringent or biting taste of glycerine ([12]; mogroside added to glycerine-water mixtures): greatly reduces or even eliminates the astringent or biting taste
flavor [13]: less so, but still floury
taste description by six blind tasters ([14]; 150-250 ppm, puree poached to 74° C., control livery, organy, bloody): slightly sweet, “bologna-like,” and “bland.”
level preferred by the majority of testers ([14]; in vivo): 200 ppm
preference of testers ([14]; samples with mogroside vs control puree, six individuals): All testers preferred the samples with mogroside
flavor [15]: chocolate
